Assay results published in PMC11012124, “Synthesis of Novel Triazine-Based Chalcones and 8,9-dihydro-7H-pyrimido[4,5-b][1,4]diazepines as Potential Leads in the Search of Anticancer, Antibacterial and Antifungal Agents” (International Journal of Molecular Sciences, 2024).

Legend:
UACC-62 = experiment: cells; conditions: Homo sapiens, UACC-62, 48 h; for CC50: read-out: LC50
SF-268 = experiment: cells; conditions: Homo sapiens, SF-268, 48 h; for CC50: read-out: LC50
OVCAR-3 = experiment: cells; conditions: Homo sapiens, OVCAR-3, 48 h
SF-295 = experiment: cells; conditions: Homo sapiens, SF-295, 48 h; for CC50: read-out: LC50
NCI-H226 = experiment: cells; conditions: Homo sapiens, NCI-H226, 48 h; for CC50: read-out: LC50
RPMI-8226 = experiment: cells; conditions: Homo sapiens, RPMI-8226, 48 h
NCI-H322M = experiment: cells; conditions: Homo sapiens, 48 h; for CC50: read-out: LC50
60 cancer cell lines = experiment: NCI-60 one-dose screen (10 μM); format: cell-based; conditions: Homo sapiens; one dose of 10 μM, mean over 60 cancer cell lines; read-out: Mean Growth Percent (MGP)
Description: Additionally, the mean of the growth percentages (MGP) of each compound against all the 60 cancer cell lines is also reported, which is used as one of the selection criteria to continue with tests at five concentration doses.

ACHN = experiment: cells; conditions: Homo sapiens, 48 h; for CC50: read-out: LC50
HCT-116 = experiment: cells; conditions: Homo sapiens, HCT-116, 48 h; for CC50: read-out: LC50
M14 = experiment: cells; conditions: Homo sapiens, M14, 48 h; for CC50: read-out: LC50
A498 = experiment: cells; conditions: Homo sapiens, A498, 48 h; for CC50: read-out: LC50
U251 = experiment: cells; conditions: Homo sapiens, U-251, 48 h; for GI50: U251, 48 h; for CC50: read-out: LC50
T-47D = experiment: cells; conditions: Homo sapiens, T47D, 48 h; for CC50: read-out: LC50
OVCAR-4 = experiment: cells; conditions: Homo sapiens, OVCAR-4, 48 h; for CC50: read-out: LC50
SN12C = experiment: cells; conditions: Homo sapiens, 48 h
UACC-257 = experiment: cells; conditions: Homo sapiens, UACC-257, 48 h; for CC50: read-out: LC50
MALME-3M = experiment: cells; conditions: Homo sapiens, 48 h
SF-539 = experiment: cells; conditions: Homo sapiens, SF-539, 48 h; for CC50: read-out: LC50, SF-539, 48 h
BT-549 = experiment: cells; conditions: Homo sapiens, BT-549, 48 h; for CC50: read-out: LC50
MDA-MB-435 = experiment: cells; conditions: Homo sapiens, MDA-MB-435, 48 h; for CC50: read-out: LC50
CCRF-CEM = experiment: cells; conditions: Homo sapiens, 48 h; for CC50: read-out: LC50
HOP-62 = experiment: cells; conditions: Homo sapiens, HOP-62, 48 h; for CC50: read-out: LC50
MDA-MB-231/ATCC = experiment: cells; conditions: Homo sapiens, MDA-MB-231, 48 h; for CC50: read-out: LC50
MOLT-4 = experiment: cells; conditions: Homo sapiens, MOLT-4, 48 h; for CC50: read-out: LC50
DU-145 = experiment: cells; conditions: Homo sapiens, DU-145, 48 h; for CC50: read-out: LC50
LOX IMVI = experiment: cells; conditions: Homo sapiens, 48 h; for CC50: read-out: LC50, LOX IMVI, 48 h
UO-31 = experiment: cells; conditions: Homo sapiens, UO-31, 48 h; for CC50: read-out: LC50
HT29 = experiment: cells; conditions: Homo sapiens, HT-29, 48 h; for CC50: read-out: LC50
OVCAR-5 = experiment: cells; conditions: Homo sapiens, OVCAR-5, 48 h; for CC50: read-out: LC50
[1] = Hemolytic activity, spectrophotometric; format: cell-based, human; conditions: human, human red blood cells (huRBC), 5% hematocrit, 200 μg/mL, 37 °C
COLO 205 = experiment: cells; conditions: Homo sapiens, COLO 205, 48 h; for CC50: read-out: LC50
HL-60(TB) = experiment: cells; conditions: Homo sapiens, HL-60, 48 h; for CC50: read-out: LC50
HS 578T = experiment: cells; conditions: Homo sapiens, 48 h; for CC50: read-out: LC50
MCF7 = experiment: cells; conditions: Homo sapiens, MCF7, 48 h; for CC50: read-out: LC50
OVCAR-8 = experiment: cells; conditions: Homo sapiens, OVCAR-8, 48 h; for CC50: read-out: LC50
PC-3 = experiment: cells; conditions: Homo sapiens, PC-3, 48 h; for CC50: read-out: LC50
EKVX = experiment: cells; conditions: Homo sapiens, 48 h; for CC50: read-out: LC50

## COc1ccc(/C=C/C(=O)c2ccc(S(=O)(=O)NCCNc3nc(Nc4ccc(F)cc4)nc(N(C)C)n3)cc2)cc1 [24c]
UACC-62
  GI50: 4.79 µM
  CC50: 51.6 µM
SF-268
  GI50: 4.43 µM
  CC50: > 100 µM
OVCAR-3
  GI50: 5.01 µM
OVCAR-3; read-out: LC50
  CC50: 59.4 µM
SF-295
  GI50: 5.05 µM
  CC50: 62.4 µM
NCI-H226
  GI50: 3.8 µM
  CC50: > 100 µM
RPMI-8226
  GI50: 2.96 µM
RPMI-8226; read-out: LC50
  CC50: > 100 µM
NCI-H322M
  GI50: 10.2 µM
  CC50: > 100 µM
60 cancer cell lines
  activity at 10 µM: 24.7%
ACHN
  GI50: 3.4 µM
  CC50: > 100 µM
HCT-116
  GI50: 1.86 µM
  CC50: 7.07 µM
M14
  GI50: 4.27 µM
  CC50: 99.6 µM
A498
  GI50: 10 µM
  CC50: 87.8 µM
U251
  GI50: 6.7 µM
  CC50: 55.3 µM
T-47D
  GI50: 3.78 µM
  CC50: > 100 µM
OVCAR-4
  GI50: 4.12 µM
  CC50: > 100 µM
SN12C
  GI50: 3.6 µM
SN12C; read-out: LC50
  CC50: 44.5 µM
UACC-257
  GI50: 13.3 µM
  CC50: > 100 µM
MALME-3M
  GI50: 10.6 µM
MALME-3M; read-out: LC50
  CC50: > 100 µM
SF-539
  GI50: 10.3 µM
  CC50: 51.2 µM
BT-549
  GI50: 13.2 µM
  CC50: 56.7 µM
MDA-MB-435
  GI50: 5.47 µM
  CC50: 79.6 µM
CCRF-CEM
  GI50: 4.09 µM
  CC50: > 100 µM
HOP-62
  GI50: 17.1 µM
  CC50: > 100 µM
MDA-MB-231/ATCC
  GI50: 2.73 µM
  CC50: 63 µM
MOLT-4
  GI50: 3.12 µM
  CC50: > 100 µM
DU-145
  GI50: 7.54 µM
  CC50: > 100 µM
LOX IMVI
  GI50: 3.23 µM
  CC50: 34 µM
UO-31
  GI50: 3.78 µM
  CC50: > 100 µM
HT29
  GI50: 1.83 µM
  CC50: 7.63 µM
OVCAR-5
  GI50: 8.43 µM
  CC50: > 100 µM
[1]
  hemolysis at 24 h, 200 µg/mL: 0.1%
COLO 205
  GI50: 3.46 µM
  CC50: 45.7 µM
HL-60(TB)
  GI50: 3.6 µM
  CC50: > 100 µM
HS 578T
  GI50: 4.68 µM
  CC50: > 100 µM
MCF7
  GI50: 1.93 µM
  CC50: 46.1 µM
OVCAR-8
  GI50: 9.51 µM
  CC50: > 100 µM
PC-3
  GI50: 3.5 µM
  CC50: > 100 µM
EKVX
  GI50: 4.12 µM
  CC50: > 100 µM

## Nc1nc(N)c2c(n1)NC(c1ccc(Cl)cc1)CC(c1ccc(Nc3nc(NCCO)nc(Nc4ccc(Cl)cc4)n3)cc1)=N2 (centres unmarked) [33e]
UACC-62
  GI50: 2.03 µM
  CC50: 9.06 µM
SF-268
  GI50: 4.14 µM
  CC50: > 100 µM
SF-295
  GI50: 1.73 µM
  CC50: 7.76 µM
NCI-H226
  GI50: 6.47 µM
  CC50: > 100 µM
RPMI-8226
  GI50: 1.44 µM
NCI-H322M
  GI50: 2.02 µM
  CC50: 16.9 µM
60 cancer cell lines
  activity at 10 µM: 30.5%
ACHN
  GI50: 4.69 µM
  CC50: > 100 µM
HCT-116
  GI50: 1.4 µM
  CC50: 5.19 µM
M14
  GI50: 1.9 µM
  CC50: 10.5 µM
A498
  GI50: 5.9 µM
  CC50: 44.5 µM
U251
  GI50: 1.47 µM
  CC50: 5.81 µM
T-47D
  GI50: 1.71 µM
  CC50: 54.6 µM
OVCAR-4
  GI50: 1.96 µM
  CC50: 32.7 µM
SN12C
  GI50: 1.95 µM
UACC-257
  GI50: 1.91 µM
  CC50: 7.32 µM
MALME-3M
  GI50: 1.75 µM
SF-539
  GI50: 1.68 µM
  CC50: 6.56 µM
BT-549
  GI50: 2.25 µM
  CC50: 23.5 µM
MDA-MB-435
  GI50: 1.63 µM
  CC50: 6.2 µM
CCRF-CEM
  GI50: 1.14 µM
  CC50: > 100 µM
HOP-62
  GI50: 2.83 µM
  CC50: 34.5 µM
MDA-MB-231/ATCC
  GI50: 1.75 µM
  CC50: 8.82 µM
MOLT-4
  GI50: 0.79 µM
  CC50: > 100 µM
DU-145
  GI50: 2.22 µM
  CC50: 22.8 µM
LOX IMVI
  GI50: 1.45 µM
  CC50: 5.63 µM
UO-31
  GI50: 3.1 µM
  CC50: > 100 µM
HT29
  GI50: 1.7 µM
  CC50: 7.96 µM
OVCAR-5
  GI50: 4.48 µM
  CC50: 74 µM
[1]
  hemolysis at 24 h, 200 µg/mL: 1.2%
COLO 205
  GI50: 1.51 µM
  CC50: 8.55 µM
HL-60(TB)
  GI50: 1.15 µM
  CC50: > 100 µM
HS 578T
  GI50: 2.22 µM
  CC50: > 100 µM
MCF7
  GI50: 1.2 µM
  CC50: 5.47 µM
OVCAR-8
  GI50: 1.57 µM
  CC50: 6.81 µM
PC-3
  GI50: 1.93 µM
  CC50: > 100 µM
EKVX
  GI50: 2.01 µM
  CC50: 28.7 µM
